Converted amounts (≈) assume the structure as drawn.
Legend:
[1] = Solubility in water (preliminary, in words); type: physicochemical
Experimental: (§1) Milligram size quantities of each sample were placed into a vial. Solvent was added and the vials were vortexed for a few minutes, followed by visual observation for remaining solids. The solvent was incrementally added until the solids were dissolved, or a maximum volume of solvent was added and the experiment was terminated. Parallel to that, a suspension is made and filtered, the solids was examined by XRD to determine if a phase transformation occurs. Solubility experiments were performed to determine the solubility of the different polymorphic forms. […] Solubility data were collected on polymorphs I, VIII, and IX. Two of the forms were anhydrous and one was hydrated.

[2] = Form I/Form VIII competitive slurry in water-methanol mixtures; type: physicochemical
Experimental: Additional competitive slurry experiments were performed by mixing excess amounts of polymorphic forms in a solvent system and agitating the mixture isothermally. The competitive slurry experiments were used in attempts to identify the critical water activity levels for the interconversion of Form I (anhydrate target form) and Form VIII (monohydrate form). This was used to identify the water content range that can be used during processing to successfully isolate Form I in a reproducible manner. In each competitive slurry experiment, an excess of Form I and Form VIII of known weight was added to a water-methanol mixture. The suspension was slurred at ambient temperature (22° C.) or 45° C. continuously for up to 12 days in order to obtain thermodynamic equilibrium. Excess solids were collected at different slurry times by centrifugation, and then characterized by XRD. To avoid possible desolvation or physical change after isolation, the samples were not subjected to drying before X-ray analysis.

[3] = Apparent kinetic solubility in 2-butanol of different crystalline forms; type: physicochemical; details: dry 2-butanol; for Apparent Kinetic Solubility: 25° C.; for relative solubility among Forms I, VIII and IX: ambient temperature
Experimental: as §1, with “hydrated. […] Excess solids were placed in a test tube, solvent was then added in the tube, vortexed, and examined visually to determine if all the solids had dissolved. Attempts were made to prepare saturated or nearly saturated solutions of each polymorphic form by exposing excess solids of each polymorph to dry 2-butanol.” for “hydrated.”

[4] = Non-competitive slurry experiments in neat solvents; type: physicochemical
Experimental: Noncompetitive slurry experiments were performed. These experiments rely on solubility differences of different polymorphic forms (if the compound exists in different polymorphic forms). […] Essentially, when a solid is dissolved in a (slurry) solvent, a saturated solution eventually results. The solution is saturated with respect to the polymorphic form dissolved. […] In addition, noncompetitive slurry experiments are often useful in identifying solvents that form solvates with the compound. […] The solids were mechanically filtered and analyzed by XRD to determine the resulting form. To avoid possible desolvation or physical change after isolation, the samples were not subjected to drying before X-ray analysis.

[5] = Hydration experiment at 95% RH; type: physicochemical; details: 18 days
Experimental: Hydration experiments were performed on (2-carbamoyl-5-chloro-1H-indol-3-yl)-[3-((E)-2-cyano-vinyl)-5-methyl-phenyl]-(R)-phosphinic acid methyl ester Form III sample. A known weight of sample was exposed to a 95% RH environment using a saturated solution of […].

Annealing experiment = type: physicochemical; details: 14 days at 46° C.
Experimental: In addition to the solvent recrystallization experiments and slurry experiments, annealing experiments were performed. These experiments entailed looking for structural changes as a function of temperature. This was accomplished by using variable-temperature XRD, and variable temperature ovens, and DSC experiments.

[6] = Competitive slurry experiments; type: physicochemical
Experimental: Competitive slurry experiments were performed by mixing excess amounts of the polymorphic forms together in different solvents and agitating isothermally. These types of slurry experiments were used in attempts to determine which phase is more thermodynamically stable under the conditions used. Slurry experiments were generally used to examine the energy relationship between Form I and Form IX, and to examine how these two forms may interconvert with the monohydrate (Form VIII).

[7] = Solubility in recrystallization solvents (Panel 1); type: physicochemical; details: organic solvent or mixture, thermodynamic from solid, saturation temp. 25 °C
Experimental: Milligram size quantities of each sample were placed into a vial. Solvent was added and the vials were vortexed for a few minutes, followed by visual observation for remaining solids. The solvent was incrementally added until the solids were dissolved, or a maximum volume of solvent was added and the experiment was terminated. Parallel to that, a suspension is made and filtered, the solids was examined by XRD to determine if a phase transformation occurs. Saturated solutions were prepared by agitating excess test material in contact with the various solvent systems at the saturation temperature. The mother liquor was separated from the residual solids by filtration. The mother liquor was then heated above the saturation temperature (overheated) to dissolve any remaining solids. The temperature of the solutions was then adjusted to the growth temperature and a controlled nitrogen shear flow was introduced to begin solvent evaporation.

[8] = test system: several serine proteases like S. griseus proteases A and B, α-chymotrypsin, chymase, and subtilisin; details: cited from earlier work

Compound: CO[P@](=O)(c1cc(C)cc(/C=C/C#N)c1)c1c(C(N)=O)[nH]c2ccc(Cl)cc12 [Form I, (2-carbamoyl-5-chloro-1H-indol-3-yl)-[3-((E)-2-cyano-vinyl)-5-methyl-phenyl]-(R)-phosphinic acid methyl ester]
- solubility in water [1]: practically insoluble
- water content level needed to stabilize Form I (anhydrate) [2]: ≤ 24 wt %
- Apparent Kinetic Solubility ([3]; listed as I): 1810 µg/mL
- relative solubility among Forms I, VIII and IX [3]: highest solubility
- XRD pattern after slurry in water ([4]; water, ambient temperature and 50° C., up to 6 days): did not show changes in XRD pattern

Compound: CO[P@](=O)(c1cc(C)cc(/C=C/C#N)c1)c1c(C(N)=O)[nH]c2ccc(Cl)cc12 [Form III]
- XRD pattern after exposure to humidity [5]: no changes in XRD pattern
- form after slurry (ripening) in methanol ([4]; neat methanol, about 1 day, ambient temperature): converted to Form I
- form after non-competitive slurry in water ([4]; water, 3 days): resulted in Form VIII
- XRD pattern after annealing (Annealing experiment): no change in the XRD pattern

Compound: COP(=O)(c1cc(C)cc(/C=C/C#N)c1)c1c(C(N)=O)[nH]c2ccc(Cl)cc12 (stereo not shown) [Form IX, (2-carbamoyl-5-chloro-1H-indol-3-yl)-[3-((E)-2-cyano-vinyl)-5-methyl-phenyl]phosphinic acid methyl ester]
- thermodynamic stability among forms ([6]; ambient temperature and pressure): most stable form
- form after slurry in water ([6]; water, several days): remained unchanged
- solubility kinetic ([3]; 25 °C, organic solvent or mixture, thermodynamic from solid): 160 µg/mL (≈ 387 µM)
- relative solubility among Forms I, VIII and IX [3]: lowest solubility

Compound: CO[P@](=O)(c1cc(C)cc(/C=C/C#N)c1)c1c(C(N)=O)[nH]c2ccc(Cl)cc12 [Form VIII, (2-carbamoyl-5-chloro-1H-indol-3-yl)-[3-((E)-2-cyano-vinyl)-5-methyl-phenyl]-(R)-phosphinic acid methyl ester]
- critical water activity level for Form I/Form VIII interconversion ([6]; methanol/water bridging experiments): 40-60 vol % water
- Apparent Kinetic Solubility ([3]; listed as VIII): 310 µg/mL

Compound: CO[P@](=O)(c1cc(C)cc(/C=C/C#N)c1)c1c(C(N)=O)[nH]c2ccc(Cl)cc12 [compound of Formula I, (2-carbamoyl-5-chloro-1H-indol-3-yl)-[3-((E)-2-cyano-vinyl)-5-methyl-phenyl]-(R)-phosphinic acid methyl ester]
- solubility ([7]; 1-propanol): ~2670 µg/mL
- solubility ([7]; 2-butanol): < 2670 µg/mL
- solubility ([7]; 2-propanol): < 2670 µg/mL
- solubility ([7]; ethanol): 3640 µg/mL
- solubility ([7]; methanol): 10000 µg/mL
- solubility ([7]; nitromethane): 5710 µg/mL

Compound: Eglin c
- potency of inhibition [8]: nanomolar potency inhibition

Reference: US8470870B2, “Solid forms of an anti-HIV phosphoindole compound” (Idenix Pharmaceuticals, Inc., priority 2008, dated 2013)
